Source: patent US20060252774A1, “Regulation of type 5 adenylyl cyclase for treatment of neurodegenerative and cardiac diseases” (priority 2002, published 2006)

Experiments:
[1] = system: WT, hetero and AC5KO mice; test: Rotor-rod test after db-cAMP injection; assay type: in vivo, mouse
Method: FIG. 9: Effects of db-cAMP on rotor-rod test. Tests were performed before (pre), 30 minutes after (post), and 48 hours after (next) the injection of db-cAMP to WT, hetero and AC5KO (n=4-7).
The locomotor activity of intact animals, AC5KO versus WT was examined (FIG. 5). At first glance the animals appeared normal, being neither catatonic nor rigid. […] The mice were studied using a rotor rod test in which mice were placed on a rototating rod and had to make continuous adjustment in balance in order to remain upright. The time that the mice spent on the accelerating rotor rod without falling was measured. The rod increased from 3 rpm to 30 rpm during each 5 min. trial. […] There was no significant difference between WT and Hetero at the 1st through 4th trial. At the 5th trial, there was a small but signiifcant decrease in their performance in Hetero.
Motor function may be improved by the administration of cAMP analogues.

WT and AC5KO mice [2] = test: Pole test with dopaminergic agonists; assay type: in vivo, mouse
Method: (§1) FIG. 27. Motor dysfunction in ACD-^−/− mice. Rotarod test (A)—Each mouse was placed on a 3.5-cm diameter rod covered with rubber to evaluate rotarod performance (14). Mice were left for 1 minute on the rod for habituation. The rod rotated gradually increasing from 4 to 40 rpm over the course of 5 min and the time that mice could stay on an accelerating rotarod without failing was recorded. Five trials were conducted for each individual 10-25 min apart within the dark phase of the light/dark cycle. Mice that stayed on the rotarod for >300 sec were considered complete responders, and their latencies were recorded as 300 sec. *p<0.05, relative to ^+/+; ^+/−, n=17-20. Activity tests (B and C)—The tests were performed as previously described (14, 15). Mice were put in the darkened testing room 60 minutes for habituation before testing. Locomotor activity (B) was assessed using an activity monitor equipped with photocell beams (Columbus Instruments, Ohio, USA). The number of photobeam interruptions in each perpendicular axis was recorded and totaled for 5 min. The behavior of the mice was recorded simultaneously by video camera for later analysis, and their rearing actions were counted (C). *p<0.05, relative to ^+/+, n=15-20. Pole test (D)—In order to evaluate bradykinesia, pole test was performed (16). In brief, mice were placed head upward on the top of a rough-surfaced pole (8 mm in diameter and 50 cm in height) that was wrapped with gauze to prevent slipping. The time until it turned completely downward (open bars, Tturn) and the time until it climbed down to the floor (closed bars, TLA) were measured *p<0.01, relative to ^+/+, n=14-17. Means±SEM are shown. Homozygous to (ACD^−/−) (closed circles, ^−/−), heterozygous (shaded circles, ^+/−), and wild type (WT) (open circles, ^+/+).
(§2) FIG. 32. Effect of dopaminergic agonists on motor functions Effects of SKF38393 on locomotor activity (A), rotarod test (B), and pole test (C) were compared. […] In rotarod test, the best performance out of five trials in each individual was evaluated. […]

WT and AC5KO mice [3] = test: Rotarod test with dopaminergic agonists; assay type: in vivo, mouse; details: subcutaneous, 0.2 or 1.0 mg/kg
Method: as §1, §2

WT and AC5KO mice [4] = test: Locomotor activity test with dopaminergic agonists; assay type: in vivo, mouse; details: subcutaneous, SKF38393 25 or 50 mg/kg, cabergoline 0.2 or 1.0 mg/kg
Method: as §1, with “Activity tests (B and C)—The tests were performed as previously described (14, 15). Mice were put in the darkened testing room 60 minutes for habituation before testing.” left out, “Pole test (D)—In order to evaluate bradykinesia, pole test was performed (16). In brief, mice were placed head upward on the top of a rough-surfaced pole (8 mm in diameter and 50 cm in height) that was wrapped with gauze to prevent slipping.” left out, “Means±SEM are shown. Homozygous to (ACD^−/−) (closed circles, ^−/−), heterozygous (shaded circles, ^+/−), and wild type (WT) (open circles, ^+/+).” left out
FIG. 32. […] In rotarod test, the best performance out of five trials in each individual was evaluated. […]

L-type Ca2+ channels = test: Whole-cell patch-clamp of Ca2+ channel currents (ICa) in myocytes; assay type: cell-based, mouse
Description: FIG. 22: A, Effects of ISO (1 μmol/L) on ICa in WT and AC5KO myoctyes. Traces show currents recorded from a holding potential of −50 mV to indicated potentials in control before (a) and after application of ISO (1 μmol/L) (b). Peak ICa were normalized to the cell capacitance to give current densities (pA/pF) and were plotted as a function of voltage (c). B, Concentration-dependent effects of ISO on ICa measured in myocytes dialyzed with EGTA or BAPTA, and on Ba^2+ currents with EGTA. The relative increase of peak current amplitude was plotted against ISO concentration. The solid lines were best fit to one-to-one binding model. Data are from 8-30 myocytes.
Whole-cell currents were recorded using patch-clamp techniques. Cell capacitance was measured using voltage ramps of 0.8 V/s from a holding potential of −50 mV. All experiments were performed at room temperature. […] The pipette solution contained (mmol/L): Cs-aspartate, 100; CsCl, 20; MgCl2, 1; MgATP, 2; GTP, 0.5; EGTA, 5 or 1,2-bis (2-aminophenoxy)ethane-N,N,N′,N′-tetraacetic acid (BAPTA), 10 and HEPES, 5 (Ph 7.3). […] Nifedipine (10 μmol/L) was added to block L-type Ca^2+ channel currents. The patch pipette solution contained (mmol/L): potassium aspartate, 110; KCl, 20; MgCl2, 2; ATP, 2; GTP, 0.5; EGTA, 5; HEPES, 5 (pH 7.3).
Ca^2+ influx through L-type Ca^2+ channels is essential for cardiac contractility, thus basic Ca^2+ channel properties were characterized. Peak inward ICa amplitude (with 5 mmol/L EGTA in the pipette solution), normalized relative to cell capacitance (ICa density), was similar in myocytes isolated from AC5KO (7.1±0.3 pA/pF, n=69) and WT (6.7±0.3 pA/pF, n=55). […] In these experiments myocytes were dialyzed with BAPTA, and peak ICa amplitude, as the function of voltage (I-V relationships) before and after exposure to ISO, was determined. In both groups, ISO increased the current amplitude at all test potentials and also shifted the I-V relationships toward more negative potentials.

cardiac AC = test: AC assay in heart membrane preparations; assay type: biochemical, mouse; details: 100 μmol/L ISO + 100 μmol/L GTP
Method: FIG. 17: Adrenergic, muscarinic, and Ca^2+-mediated regulation of cardiac AC activity. A, AC activity in vitro. The steady state AC activity was determined as the maximal cAMP production over 15 min. Stimulation was performed at the level of the β-AR (ISO), G-protein (GTPγS) and AC catalytic unit with forskolin (Fsk). *P<0.01, n=5. B, Effects of carbachol on AC activity. AC was preactivated by ISO. AC activity was then determined in the absence and presence of carbachol. Carbachol at 10 μmol/L produced its maximal inhibitory effect. *P<0.01, n−5. C, To investigate the inhibition of AC activity by Ca^2+, we examined cAMP production in membranes from the hearts of WT and AC5KO at increasing Ca^2+ concentrations in the presence of ISO. ISO-stimulated AC activity was inhibited more in WT than in AC5KO. […].
Hearts were dissected from the mice and membrane preparations were prepared as described previously. Protein concentration was measured by the method of Bradford using bovine serum albumin as a standard. AC activity was measured as described previously. AC activity was linear within the incubation time up to 30 min. In order to harvest hearts for tissue cAMP content measurements, mice were allowed to acclimate to the surroundings in the laboratory for an hour before sacrifice. Freshly isolated hearts were briefly immersed in liquid nitrogen. The tissue was homogenized in ice-cold 6% percholic acid, and cAMP was extracted as described before. The concentration of cAMP was determined with an RIA kit (PerkinElmer Life Sciences, Boston, Mass., USA).
Hearts were dissected from the mice, and membrane preparations were prepared as described previously. Protein concentration was measured by the Bradford method using bovine serum albumin as a standard. AC activity was measured as described previously. AC activity was linear within the incubation time up to 30 min. For the study of Ca 2+ inhibition, the membranes were treated first with EGTA to extract the endogenous Ca 2+ prior to the assay. Free Ca 2+ concentrations were obtained with the use of 200 μmol/L EGTA buffers as described previously. The experiments with Ca 2+ inhibition were conducted in the presence of 100 μmol/L isoproterenol (ISO)+100 μmol/L GTP.

CCCC(=O)Nc1ncnc2c1ncn2[C@@H]1O[C@@H]2COP(=O)(O)O[C@H]2[C@H]1OC(=O)CCC [db-cAMP]
improvement of time on the rod ([1]; AC5KO, 30 minutes after injection): two-fold increase | rotor rod performance 48 hours after injection ([1]; AC5KO, 48 hours after injection): dropped to the basal level | improvement of time on the rod, increase ([1]; hetero and WT, 30 minutes after injection): 25-30%

C=CCN1C[C@H](C(=O)N(CCCN(C)C)C(=O)NCC)C[C@@H]2c3cccc4[nH]cc(c34)C[C@H]21 [Cabergoline]
pole test performance at the lower dose (WT and AC5KO mice [2]; 0.2 mg/kg): dramatic improvement | pole test performance (WT and AC5KO mice [2]; subcutaneous): improved pole test performance | rotarod performance (WT and AC5KO mice [3]; AC5KO): improved rotarod performance selectively in AC5KO | rotarod performance (WT and AC5KO mice [3]; WT): essentially had no effect on WT | locomotor activity (WT and AC5KO mice [4]): no significant effect on locomotor activity in both WT and AC5KO

CC(C)NCC(O)c1ccc(O)c(O)c1 (stereo not shown) [ISO, isoproterenol]
maximum response of the Ca2+ channel (relative increase of peak current) (L-type Ca2+ channels; AC5KO myocytes, all three conditions (EGTA, BAPTA, Ba2+)): ~1.5 fold | maximum response of the Ca2+ channel (relative increase of peak current) (L-type Ca2+ channels; WT myocytes dialyzed with EGTA): ~1.7 fold | maximum response of the Ca2+ channel (relative increase of peak current) (L-type Ca2+ channels; WT myocytes, BAPTA or Ba2+): ~2.4 fold | increase of AC activity (cardiac AC; AC5KO heart membranes): 64±4 pmol/15 min/mg | increase of AC activity (cardiac AC; WT heart membranes): 78±6 pmol/15 min/mg
